Among the data in PubChem BioAssay (NCI) are GI50 and TGI values, retold here.

Among the test systems are CCRF-CEM leukemia; SK-MEL-2 melanoma; NCI-H226 lung; COLO 205 colon; T-47D breast; MDA-MB-435; HT29 colon; MALME-3M melanoma; CAKI-1 renal; HOP-92 NSCLC.
Assay in all cases: NCI anticancer screen, dose series, 48 h

Several values for one entry are separate records, joined by “and”; a condition that tells them apart may be missing. Equal entries are not always repeated.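 Dose response: 5 concentrations. Exposure: 48 h. Format: 96-well plates. Endpoint: linear interpolation; highest concentration if not reached. The concentration for 50% growth inhibition is given as GI50. TGI marks complete inhibition of growth.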 Where only a bound is given, the exact number is not on record here.

In the case of `Cc1cccc2c1NC(=O)C2(c1ccc(O)cc1)c1ccc(O)cc1`, the GI50 in the assay on CCRF-CEM leukemia is 22.3 µM; in the assay on SK-MEL-2 melanoma, 15.7 µM; in the assay on NCI-H226 lung it was 18 µM; in the assay with COLO 205 colon, 0.0135 µM; in the assay with T-47D breast, less than 0.01 µM; in the assay on MDA-MB-435, 15.4 µM. In addition, the GI50 with HT29 colon is 15.7 µM; in the assay with MALME-3M melanoma, 17.8 µM; in the assay with CAKI-1 renal, 26.2 µM; in the assay on HOP-92 NSCLC, 1.42 µM. Also, the TGI in the assay with CCRF-CEM leukemia is greater than 100 µM; with SK-MEL-2 melanoma, 37.8 µM; in the assay with NCI-H226 lung, 59 µM; in the assay with COLO 205 colon, 11.1 µM; in the assay on MDA-MB-435, 34.9 µM; in the assay with HT29 colon, 46.5 µM. Besides, the TGI in the assay with MALME-3M melanoma was 55.5 µM; with CAKI-1 renal it was greater than 100 µM; in the assay on HOP-92 NSCLC, 27.6 µM.
In the case of `COc1cccc2cc(-c3nc(C4CCC(C(=O)O)CC4)n4ncnc(N)c34)[nH]c12` (centres undefined), the GI50 with CCRF-CEM leukemia was 0.247 µM and 0.816 µM; with SK-MEL-2 melanoma it was 0.108 µM and 0.347 µM; in the assay with NCI-H226 lung it was 0.347 µM and 0.397 µM; with COLO 205 colon, 1.07 µM and 0.542 µM; in the assay with T-47D breast, 0.045 µM and 0.0505 µM; in the assay with MDA-MB-435, 0.288 µM and 0.531 µM. Besides, the GI50 is 1.2 µM and 2.52 µM in the assay on HT29 colon; 0.0296 µM and 0.0752 µM in the assay on MALME-3M melanoma; 0.33 µM and 0.326 µM with CAKI-1 renal; 0.0158 µM and 0.0327 µM with HOP-92 NSCLC. The TGI in the assay on CCRF-CEM leukemia is 16.2 µM and > 10 µM; in the assay on SK-MEL-2 melanoma it was 0.633 µM and 2.23 µM; in the assay with NCI-H226 lung it was greater than 7.79 µM; in the assay with COLO 205 colon it was 13.5 µM and > 8.26 µM; with T-47D breast, 0.442 µM and 0.356 µM; in the assay with MDA-MB-435 it was 3.08 µM and 6.84 µM. In addition, the TGI was 79.9 µM and > 10 µM with HT29 colon; 0.354 µM and 0.675 µM in the assay with MALME-3M melanoma; 2.79 µM and 3.99 µM with CAKI-1 renal; 0.0988 µM and 0.358 µM with HOP-92 NSCLC.
With `COc1cc(CCNc2nc3cc(N)cc(N)c3nc2-c2ccccc2)cc(OC)c1`, the GI50 with CCRF-CEM leukemia was 1.36 µM; in the assay on SK-MEL-2 melanoma it was 1.92 µM; with NCI-H226 lung, 2.16 µM; in the assay with COLO 205 colon, 1.76 µM; in the assay on T-47D breast it was 1.74 µM; in the assay on MDA-MB-435 it was 1.77 µM. In addition, the GI50 was 1.93 µM in the assay on HT29 colon, 1.18 µM in the assay with MALME-3M melanoma, 1.93 µM in the assay with CAKI-1 renal and 1.61 µM in the assay with HOP-92 NSCLC. Besides, the TGI in the assay with CCRF-CEM leukemia is 6.48 µM; with SK-MEL-2 melanoma, 3.92 µM; in the assay with NCI-H226 lung, 4.87 µM; in the assay on COLO 205 colon it was 3.56 µM; with T-47D breast it was 3.8 µM; in the assay on MDA-MB-435, 3.5 µM. In addition, the TGI with HT29 colon was determined as 4.87 µM; in the assay on MALME-3M melanoma it was 2.53 µM; with CAKI-1 renal, 3.6 µM; in the assay with HOP-92 NSCLC, 3.44 µM.
For `Cc1ccc(C(CC(=O)c2ccccc2)C(C(=O)c2ccccc2)C(c2ccc(C)cc2)C2C(=O)NC(=S)NC2=O)cc1` (centres undefined), the GI50 in the assay with CCRF-CEM leukemia was 15.8 µM; with SK-MEL-2 melanoma, 7.96 µM; in the assay on NCI-H226 lung it was 14.9 µM; in the assay on COLO 205 colon, 8.45 µM; with T-47D breast, 5.78 µM; in the assay with MDA-MB-435 it was 14.6 µM. The GI50 with HT29 colon is 28.1 µM; in the assay with MALME-3M melanoma, 15.1 µM; in the assay on CAKI-1 renal, 7.7 µM; in the assay on HOP-92 NSCLC, 11 µM. For the same compound, the TGI with CCRF-CEM leukemia was greater than 50 µM; with SK-MEL-2 melanoma, greater than 50 µM; with NCI-H226 lung it was greater than 50 µM; in the assay on COLO 205 colon, 24.5 µM; in the assay with T-47D breast, greater than 50 µM; with MDA-MB-435, greater than 50 µM. Moreover, the TGI in the assay with HT29 colon was greater than 50 µM; with MALME-3M melanoma, greater than 50 µM; in the assay with CAKI-1 renal it was 35 µM; with HOP-92 NSCLC it was greater than 50 µM.
On to `O=C(NCc1cccs1)OC1CC2CCC1C2` (centres undefined), for which the TGI in the assay on CCRF-CEM leukemia, in the assay on SK-MEL-2 melanoma, with NCI-H226 lung, in the assay on COLO 205 colon, with T-47D breast and in the assay on MDA-MB-435 was greater than 100 µM in each case. Further, the TGI in the assay on HT29 colon, in the assay with MALME-3M melanoma, in the assay on CAKI-1 renal and in the assay with HOP-92 NSCLC was greater than 100 µM throughout.
For `O=C(Nc1ccc(O)c(NS(=O)(=O)c2ccc(F)cc2)c1)c1ccc(-c2ccccc2)cc1`, the GI50 in the assay on CCRF-CEM leukemia was 2.96 µM; with SK-MEL-2 melanoma it was 15.1 µM; with NCI-H226 lung it was 4.96 µM; in the assay with COLO 205 colon, 15.6 µM; in the assay with T-47D breast it was 3.07 µM; in the assay with MDA-MB-435 it was 8.12 µM. In addition, the GI50 is 14.1 µM with HT29 colon, 11.5 µM in the assay on MALME-3M melanoma, 5.65 µM in the assay with CAKI-1 renal and 2.68 µM with HOP-92 NSCLC. Besides, the TGI in the assay with CCRF-CEM leukemia was 13 µM; in the assay with SK-MEL-2 melanoma it was 46.2 µM; in the assay on NCI-H226 lung, 23.8 µM; in the assay on COLO 205 colon, 31.2 µM; in the assay on T-47D breast it was 18.4 µM; in the assay on MDA-MB-435 it was 26 µM. The TGI in the assay on HT29 colon was 30.9 µM; with MALME-3M melanoma, 23.9 µM; with CAKI-1 renal it was 32.6 µM; in the assay with HOP-92 NSCLC, 17.1 µM.
As to `COc1ccc(NC(=O)CC(=O)n2nc(-c3ccccc3)c(N=Nc3ccccc3C)c2-c2ccccc2)cc1`, the TGI in the assay on CCRF-CEM leukemia is greater than 100 µM; in the assay with SK-MEL-2 melanoma it was 56.9 µM; in the assay on NCI-H226 lung it was 63.7 µM; in the assay with COLO 205 colon, 99.8 µM; in the assay with T-47D breast it was 57.7 µM; with MDA-MB-435 it was greater than 100 µM. Moreover, the TGI in the assay on HT29 colon was greater than 100 µM; with MALME-3M melanoma, 81.9 µM; in the assay with CAKI-1 renal, greater than 64.8 µM; in the assay on HOP-92 NSCLC, 34.9 µM.
Turning to `CC(=O)Nc1ccc(S(=O)(=O)c2ccc(NC(C)=O)cc2)cc1`, the GI50 in the assay on CCRF-CEM leukemia, with SK-MEL-2 melanoma, with NCI-H226 lung, in the assay with COLO 205 colon, with T-47D breast and with MDA-MB-435 was greater than 100 µM throughout. The GI50 is greater than 100 µM with HT29 colon, 34.5 µM with MALME-3M melanoma, greater than 100 µM in the assay on CAKI-1 renal and greater than 100 µM with HOP-92 NSCLC. Further, the TGI in the assay on CCRF-CEM leukemia, with SK-MEL-2 melanoma, in the assay on NCI-H226 lung, in the assay with COLO 205 colon, in the assay with T-47D breast and in the assay on MDA-MB-435 was greater than 100 µM in each case. Moreover, the TGI in the assay with HT29 colon, with MALME-3M melanoma, in the assay with CAKI-1 renal and in the assay with HOP-92 NSCLC was greater than 100 µM throughout.
